# From ChEMBL document CHEMBL5604062, “ASAP - ZIKV NS2B-NS3 protease fluorescence dose response” (2024)
# pIC50: −log10 of the molar value. “And” between values parts separate entries of the source, which are not always exact repeats. Identical values can stand only once.
# Target: Nonstructural protein 3 (Zika virus, UniProt A0A024AXB9)
# Assay: Functional biochemical assay to identify treatments for viral infectious disease that targets Zika NS2B-NS3 protease. Utilizing a direct enzyme activity measurement method, reading the fluorescence intensity is used to characterize the relative potency of inhibitors as IC50.
# Set-up: species or system PRVABC59
# Chain of Nonstructural protein 3 (A0A024AXB9 whole entry): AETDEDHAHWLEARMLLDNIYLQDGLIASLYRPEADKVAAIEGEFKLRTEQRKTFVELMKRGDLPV
row,pIC50,SMILES
1,< 4.00,O=C(O)COc1cccc(NC(=O)c2cc(Cl)cc(NC(=O)OCc3ccccc3)c2)c1
2,< 4.00,O=C(NCc1nccs1)c1sccc1Cl
3,< 4.00,N#Cc1cc(-c2ccc3[nH]c(C(=O)O)cc3c2)c2nc[nH]c2c1
4,< 4.00,Fc1ncccc1OCc1cc(Cl)nc(N2CCNCC2)n1
5,5.11,O=C(Nc1cc(Cl)cc(C(=O)Nc2ccc3c(c2)CNCCO3)c1)OCc1ccccc1
6,< 4.00,O=C(Nc1cc(Cl)cc(C(=O)NC[C@H]2CCNC3(CC3)C2)c1)OCc1ccccc1
7,< 4.00,NCc1cccc(NC(=O)[C@H](NC(=O)C2CCC2)c2ccc(OCc3ccccc3)cc2)c1
8,< 4.00,FC(F)(F)c1ccccc1C1CCN(Cc2c[nH]c3ccccc23)CC1
9,4.24,Cc1noc(C)c1-c1ccc([C@@H](NC(=O)OCc2ccccc2)C(=O)Nc2cccc(CN)c2)cc1
10,< 4.00,CCCCS(=O)(=O)N1CCC([C@H](NC(=O)OCc2ccccc2)C(=O)Nc2cccc(CN)c2)CC1
11,4.09,CCCC[C@H](N)C(=O)N[C@H](C(=O)NCc1ccc(C(N)=O)cc1)c1ccc(OCc2ccccc2)cc1
12,< 4.00,NCc1cccc(NC(=O)c2ccc(F)c(NC(=O)OCc3ccccc3)c2F)c1
13,< 4.00,CCn1cc(-c2cnc3ccnn3c2)nc(N2CC[C@@H](CO)C2)c1=O
14,5.03,C=CC[C@H](Nc1cccc(-c2nn[nH]n2)c1)c1cc(Cl)cc(NC(=O)OCc2ccccc2)c1
15,< 4.00,CCn1ccnc(N2CC[C@H](C#N)C2)c1=O
16,< 4.00,COc1ccc(NS(=O)(=O)c2ccc(Cl)cc2C(=O)O)cc1N1CCCC1=O
17,< 4.00,NCc1cc(C(=O)O)cc([C@@H]2C[C@H]2c2cc(Cl)cc(NC(=O)OCc3ccccc3)c2)c1
18,4.48,NCc1ccc(CNC(=O)c2cc(Cl)cc(NC(=O)OCc3ccccc3)c2)c(F)c1

row,pIC50,SMILES
1,< 4.00,CN1CCn2nc(NC(=O)c3cc(Cl)cc(NC(=O)OCc4ccccc4)c3)cc2C1
2,4.91,NCc1ccc2c(c1)N(C(=O)[C@@H](NC(=O)OCc1ccccc1)c1ccc(OCc3ccccc3)cc1)CC2
3,< 4.00,c1ccc2c(Cc3ccc(-c4nnn[nH]4)cc3)c[nH]c2c1
4,6.06,O=C(Nc1ccc2c(c1)CNC2)c1cc(Cl)ccc1-n1cncn1
5,< 4.00,CCn1c(=O)c(N2CC[C@H](CO)C2)nc2cc(C(=O)NS(C)(=O)=O)ccc21
6,< 4.00,OCCCCCc1nc(-c2ccc(Br)o2)no1
7,5.18,Cn1nc(C(=O)Nc2ccc3c(c2)CNC3)c2cc(Br)ccc21
8,< 4.60,O=C(Nc1cc(-c2cccnc2)ccn1)c1nc(Br)n2c1CNCC2
9,6.20,CC(C)c1nn(C)cc1-c1cc(F)cc(C(=O)Nc2ccc3c(c2)CNC3)c1
10,< 4.00,NCc1cccc(NC(=O)[C@H]2CC(=O)Nc3ccc(Br)cc32)c1
11,< 4.00,CC(C)(C)OC(=O)N1C[C@@H](O)[C@H](c2c[nH]c3ccccc23)C1
12,< 4.00,O=C(Nc1cc(Cl)cc(C(=O)NCC[C@H]2COCCN2)c1)OCc1ccccc1
13,6.68,C=CC[C@H]1NCc2cc(N[C@H](C(=O)NCC(F)F)c3cc(Cl)cc(C4CC4)c3)ccc21
14,4.56,O=C(Nc1cc(Cl)cc(CNc2cccc(-c3nn[nH]n3)c2)c1)OCc1ccccc1
15,< 4.00,Cn1ccc(Nc2ccc(S(=O)(=O)Nc3ccc(Cl)cc3C(=O)O)cn2)n1
16,5.33,CC(C)(C)NC(=O)[C@H](Nc1ccc2c(c1)CNC2)c1cc(Cl)cc(C2CC2)c1
17,4.38,O=C(Nc1cc(Cl)cc(C(=O)Nc2cc(-c3nnn[nH]3)ccc2F)c1)OCc1ccccc1

# The next lines start with the compound.
row,SMILES,pIC50
1,O=C(O)CN(c1ccc(Cl)cc1)S(=O)(=O)c1ccc(Oc2ccccc2Cl)cc1,< 4.00
2,CC(C)CO[C@]1(C)C(=O)Nc2cc(F)cc(C(=O)Nc3ccc4c(c3)CNC4)c21,5.61
3,O=C(O)c1cc(Cl)ccc1S(=O)(=O)Nc1ccc(F)c(N2CCNC2=O)c1,< 4.00
4,O=C(Nc1cc(-c2cccnc2)ccn1)c1cc(C2CC2)no1,< 4.60
5,CCOc1cccc(-c2ccc(NS(=O)(=O)c3cc(F)c(Cl)cc3C(=O)O)cc2)c1,4.66
6,O=C(Nc1ccc2c(c1)CNCC2)c1cc(Cl)cc2[nH]ncc12,6.30
7,NCCCc1ccnc(NC(=O)c2cnn3c2CCC3)c1,< 4.60
8,NCc1ccccc1C1CCN(C(=O)[C@H]2CCN3CC[C@H]2C3)CC1,< 4.00
9,C[C@H]1CNC[C@H](C(=O)Nc2cccc(CN)c2)C1,< 4.00
10,O=C(Nc1ccc2c(c1)CN(CC(F)F)C2)c1cc(Cl)cc2[nH]ncc12,5.42
11,CNc1cc(COc2cccnc2F)nc(N2CCNCC2)n1,< 4.00
12,O=S(=O)(Cc1nnc(Cc2ccccc2)o1)c1ccc(O)cc1,< 4.00
13,Cn1nc2c(c1NC(=O)c1cc(Cl)cc(NC(=O)OCc3ccccc3)c1)CCNC2,< 4.00
14,O=C(NCCOCC1CC1)[C@H](Nc1ccc2c(c1)CNC2)c1cc(Cl)cc(C2CC2)c1,7.10 and 7.30
15,O=C(O)c1cc(Cl)ccc1NS(=O)(=O)c1ccc(-c2ccccc2Cl)cc1,4.75
16,O=C(/C=C/c1ccc(N2CCNCC2)cc1)C(=O)N1CCOCC1,< 4.00
17,CS(=O)(=O)c1cc(CN)cc([C@@H]2C[C@H]2c2cc(Cl)cc(NC(=O)OCc3ccccc3)c2)c1,4.36
18,CC[C@H](Cc1nnn[nH]1)c1ccc(NC(=O)c2cc(Cl)cc(C#N)c2)cc1,< 4.00
19,OC[C@H]1CCN(c2cnc3ccccc3n2)C1,< 4.00
20,CCN(C(=O)Cn1ccnc(N2CC[C@H](CO)C2)c1=O)C(C)C,< 4.00
21,Cn1nccc1-c1ccc([C@@H](NC(=O)OCc2ccccc2)C(=O)Nc2cccc(CN)c2)cc1,< 4.00
22,O=C(Nc1ccc2c(c1)CN[C@H]2CO)c1cc(F)cc2[nH]ncc12,6.90
23,O=S1(=O)CCN(CC#Cc2ccc3sncc3c2)CC1,< 4.00
24,NCc1cc(Cl)cc(C(=O)Nc2ccc3c(c2)CNC3)c1,6.94

row,SMILES,pIC50
1,O=C(O)[C@@H]1CCCC[C@@H]1NS(=O)(=O)c1ccc(Oc2ccccc2Cl)cc1,< 4.00
2,CCn1cc(-c2cccc(OC)c2F)nc(N2CC[C@@H](CO)C2)c1=O,< 4.00
3,CS(=O)(=O)Nc1cc(Cl)cc(C(=O)Nc2cccc(CN)c2)c1,< 4.00
4,CCOC(=O)c1cc(C(=O)N[C@H](C(=O)Nc2cccc(CN)c2)c2ccc(OCc3ccccc3)cc2)n(C)n1,4.63 and 4.64
5,O=C(Nc1cc([C@H]2CCOC2)ccn1)c1ccc2ncsc2c1,< 4.60
6,Cc1c(C(=O)Nc2cc(-c3cccnc3)ccn2)c2ccccc2n1C,< 4.60
7,O=C(/C=C/c1ccccc1)C(=O)N1CCOCC1,< 3.70
8,O=C(Nc1ccc2c(c1)CNC2)c1cc(F)cc2c1CCC2,7.00 and 7.05
9,CCN(C)S(=O)(=O)N1CCC([C@H](NC(=O)OCc2ccccc2)C(=O)Nc2cccc(CN)c2)CC1,< 4.00
10,O=C(Nc1cc2c(cc1Br)CNC2)c1cc(Cl)cc2[nH]ncc12,7.29 and 7.47
11,Cc1cc(CN)cc(C)c1NS(=O)(=O)c1ccc(Oc2ccccc2Cl)cc1,4.09
12,CCCNC(=O)[C@H](Nc1ccc2c(c1)CNC2)c1cc(Cl)cc2[nH]ncc12,7.44 and 7.51
13,Cn1c(Sc2nc3ccccc3o2)nc2sccc2c1=O,< 4.00
14,O=C(Nc1cc(Cl)cc(C(=O)Nc2cccc(CC3CCNCC3)c2)c1)OCc1ccccc1,< 4.00
15,CC(C)(C)NC(=O)[C@H](Nc1cccc(-c2nn[nH]n2)c1)c1cc(Cl)cc(NC(=O)OCc2ccccc2)c1,4.56
16,O=C(Cc1ccc2ncsc2c1)Nc1ccc2c(c1)CNC2,< 4.60
17,COc1cc(OC)cc([C@H]2CCN(C(=O)Nc3ccc4c(c3)CNC4)C2)c1,< 4.60
18,c1cc(CN2CCC(c3cscn3)CC2)[nH]n1,< 4.00
19,O=C1Cc2c(cc(Br)cc2C(=O)Nc2ccc3c(c2)C(=O)OC3)N1,< 4.60
20,O=C(Nc1ccc2c(c1)CNC2)c1cc(Cl)cc2nn(C3CCOCC3)cc12,6.88
21,CCCc1sc(C(=O)Nc2cccc(-c3nnn[nH]3)c2)cc1CC,< 4.00
22,NCc1cccc(NC(=O)[C@H](NC(=O)OCc2ccccc2)C(C2CCC2)C2CCC2)c1,< 4.00
23,CC(C)c1nn(-c2ccccc2)cc1C(=O)Nc1cccc(CN)c1,< 4.00
24,CCn1c(=O)c(N2CCC[C@H]2c2cncc(Br)c2)nc2ccccc21,< 4.00

row,SMILES,pIC50
1,O=C(Nc1ccc2c(c1)CNC2)c1cc(Br)cc2c1nc1n2CCCC1,6.26
2,C[C@H]1Oc2c(cccc2C(=O)Nc2ccc3c(c2)CNC3)NC1=O,5.95
3,O=C1Cc2c(cccc2C(=O)N[C@H]2CCSC3(CCOCC3)C2)N1,< 4.60
4,CC(C)[C@@H]1C(=O)O[C@H]1C(=O)O,< 4.00
5,O=C(Nc1ccc2c(c1)CNC2)c1ccccn1,4.24
6,c1ccc(COc2cccc3[nH]cc(CN4CCC(c5cscn5)CC4)c23)cc1,< 4.00
7,CO[C@H](C)Cn1cc2c(C(=O)Nc3ccc4c(c3)CNC4)cc(Cl)cc2n1,6.44
8,Cc1c(C(=O)Nc2cccc(-c3ccccc3)c2)cc(C2CC2)n1C,< 4.60
9,OC1CCN(Cc2c[nH]c3ccccc23)CC1,< 4.00
10,O=C(O)c1cc(Cl)ccc1NS(=O)(=O)c1ccc(OCc2ccccn2)cc1,< 4.00
11,O=C(Cc1cccc2[nH]ncc12)Nc1ccc2c(c1)CNC2,< 4.60
12,Cn1cc2c(C(=O)Nc3ccc4c(c3)CNC4)cc(Cl)cc2n1,6.80
13,O=Cc1ccc(N2CCC(C(=O)N3CCN(c4cccc(O)c4)CC3)CC2)cc1,4.31
14,O=C(NCc1ccco1)c1csc(Br)c1,< 4.00
15,NCc1ccc(C[C@H](NC(=O)c2ccccc2)C(=O)N2CCCCC2)cc1,< 4.00
16,NCc1cccc(NC(=O)c2cc(CO)cc(NC(=O)OCc3ccccc3)c2)c1,< 4.00
17,O=C(O)c1cc(Cl)cc(Cl)c1S(=O)(=O)Nc1ccc(Oc2ccccc2Cl)cc1,< 4.00
18,NCc1cc(CO)cc([C@H]2C[C@@H]2c2cc(Cl)cc(NC(=O)OCc3ccccc3)c2)c1,4.98
19,NCc1ccc(-c2ccc(OCC3CCNCC3)nc2-c2ccc(-c3ccoc3)cc2)cc1,4.64
20,c1ccc2nc(SCc3cn4ccccc4n3)cnc2c1,< 4.00
21,Cc1c(C(=O)Nc2cc(C(=O)Nc3cccnc3)ccn2)cc(C2CC2)n1C,< 4.60
22,O=C(O)c1cc(Cl)ccc1S(=O)(=O)NC1CCN(S(=O)(=O)c2cccs2)CC1,< 4.00
23,Cc1cc(CN)cc(NS(=O)(=O)c2ccc(Oc3ccccc3Cl)cc2)c1,< 4.00
24,O=C(O)c1cc(Cl)ccc1NS(=O)(=O)c1ccc(N[C@H]2CCOC2)nc1,< 4.00
